From ChEMBL document CHEMBL5131393 (J Med Chem, 2021)
Each block holds one compound with its values, some of them ahead of it.

Assays:
[1] = test system: Human immunodeficiency virus 1; test: Antiviral activity against HIV-1 pseudovirus infected in human TZM-bl cells preincubated with virus for 30 mins followed by cell infection and measured after 3 days by luciferase assay; format: functional, organism-based; settings: Human immunodeficiency virus 1, TZM-bl
[2] = target: Human immunodeficiency virus type 1 reverse transcriptase (Human immunodeficiency virus 1, UniProt Q72547); test: Inhibition of recombinant HIV-1 reverse transcriptase incubated for 2 hrs by colorimetric assay
TZM = test: Cytotoxicity against human TZM-bl cells assessed as reduction in cell viability measured after 3 days by XTT assay; format: functional; settings: 72 h, time 3 day
[3] = target: Human immunodeficiency virus type 1 reverse transcriptase (Human immunodeficiency virus 1) (UniProt Q72547); test: Potency index, ratio of test compound IC50 to NBD-14189 IC50 for inhibition of recombinant HIV-1 reverse transcriptase incubated for 2 hrs by colorimetric assay

SMILES: NCc1cc(-c2ccc3c(c2)OCO3)[nH]c1C(=O)NC(CO)c1nc(S)cs1 (stereo not drawn)
- EC50 [1]: 4.3 µM
- IC50 [2]: 39.5 µM
- CC50 (TZM): 142 µM

SMILES: Cc1cc(-c2ccc(C(F)(F)F)cn2)[nH]c1C(=O)N[C@@H](CN)c1ncc(CO)s1
- CC50 (TZM): 109 µM
- Ratio IC50 [3]: 2

- IC50 [2]: > 200 µM
SMILES: CC1(C)CC(NC(=O)C(=O)Nc2ccc(Cl)cc2)CC(C)(C)N1
- CC50 (TZM): 60 µM

SMILES: Cc1cc(-c2ccc(C(F)(F)F)cn2)[nH]c1C(=O)N[C@H](CN)c1nc(CO)cs1
- IC50 [2]: 5 µM
- CC50 (TZM): 85 µM

SMILES: Cc1nc(C(CNC2CCC2)NC(=O)c2ccc(-c3ccc(Cl)cc3)[nH]2)sc1CO (single isomer, unassigned)
- EC50 [1]: 2.2 µM
- IC50 [2]: 43.4 µM
- CC50 (TZM): 24 µM
- Ratio IC50 [3]: 31

SMILES: Cc1nc([C@H](CN)NC(=O)c2ccc(-c3ccc(Cl)c(F)c3)[nH]2)sc1CO
- IC50 [2]: 8.3 µM
- CC50 (TZM): 40.5 µM

SMILES: CNCc1cc(-c2ccc3c(c2)OCO3)[nH]c1C(=O)NCc1nc(S)c(CO)s1
- EC50 [1]: 2.7 µM
- CC50 (TZM): 95.8 µM

SMILES: NC[C@@H](NC(=O)c1ccc(-c2ccc(C(F)(F)F)cn2)[nH]1)c1ncc(C(O)CO)s1 (stereo partly drawn)
- EC50 [1]: 2.1 µM
- CC50 (TZM): > 113 µM

SMILES: NC[C@H](NC(=O)c1ccc(-c2ccc(C(F)(F)F)cc2)[nH]1)c1nc(CO)cs1
- EC50 [1]: 0.089 µM
- IC50 [2]: 1.5 µM
- CC50 (TZM): 21.9 µM

SMILES: Cc1sc(C(CO)NC(=O)c2[nH]c(-c3ccc4c(c3)OCO4)cc2CN)nc1S (stereo not drawn)
- EC50 [1]: 2.3 µM
- IC50 [2]: 30.6 µM
- CC50 (TZM): 146 µM

SMILES: Cc1nc([C@@H](CN)NC(=O)c2ccc(-c3ccc(F)c(F)c3)[nH]2)sc1CO
- EC50 [1]: 3.3 µM
- CC50 (TZM): 84.1 µM

SMILES: Cc1ccc(-c2ccc(C(=O)N[C@H](CN)c3ncc(CO)s3)[nH]2)cc1F
- EC50 [1]: 0.45 µM
- IC50 [2]: 7.2 µM
- CC50 (TZM): 38.8 µM

SMILES: NC[C@@H](NC(=O)c1ccc(-c2ccc(Cl)c(F)c2)[nH]1)c1ncc(CO)s1
- EC50 [1]: 0.57 µM
- IC50 [2]: 13.7 µM
- CC50 (TZM): 33 µM

SMILES: NC[C@H](NC(=O)c1ccc(-c2ccc(C(F)(F)F)cn2)[nH]1)c1nc(CO)cs1
- EC50 [1]: 0.3 µM
- IC50 [2]: 2.8 µM
- CC50 (TZM): 124 µM

SMILES: NC[C@H](NC(=O)c1ccc(-c2cc(F)c(Cl)c(F)c2)[nH]1)c1ncc(CO)s1
- IC50 [2]: 8.4 µM
- CC50 (TZM): 39.5 µM
